# Experimental data reported in patent US11446287B2, “Compounds and methods for EP300 or CBP modulation and indications therefor” (Opna Immuno-Oncology SA, priority 2019, dated 2022).
# Molecular target: T1, Recombinant human BRD4 containing dual bromodomains (BRD4-BD12 (1-477)) (Homo sapiens, UniProt O60885)
# T1 construct: Recombinant human BRD4 containing dual bromodomains (BRD4-BD12 (1-477)); made in house; host or cells: E. coli BL21-CodonPlus (DE3), modified pET vector
# Assay: BRD4 Alphascreen binding assay
# How it was run: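 His-tagged human BRD4 tandem bromodomains (1-477, E. coli) incubated 1 h at room temperature with biotinylated tetra-acetylated H4 (1-21) peptide and compound in HEPES pH 7.5 buffer with 2 mM DTT. AlphaScreen signal read 30 min after adding beads (7.5 μg/ml); IC50 from four-parameter fit after normalization to controls.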
row,Compound,IC50 [µM]
1,"Cc1noc(C)c1-c1cnc2c(c1)c(-c1c(Cl)cc(C(=O)O)cc1OC(C)C)cn2-c1cnc(C2CC2)nc1 [P-0393, 3-chloro-4-(1-(2-cyclopropylpyrimidin-5-yl)-5-(3,5-dimethylisoxazol-4-yl)-1H-pyrrolo[2,3-b]pyridin-3-yl)-5-isopropoxybenzoic acid]",1 to 8
2,"Cc1noc(C)c1-c1cnc2c(c1)c(-c1c(F)cc(C(=O)O)cc1OC1CC1)cn2C(C1CC1)C1CC1 [P-0394, 3-cyclopropoxy-4-(1-(dicyclopropylmethyl)-5-(3,5-dimethylisoxazol-4-yl)-1H-pyrrolo[2,3-b]pyridin-3-yl)-5-fluorobenzoic acid]",1 to 8
3,"Cc1noc(C)c1-c1cnc2c(c1)c(-c1c(Cl)cc(C(=O)O)cc1OC(F)(F)F)cn2-c1ncccc1C#N [P-0395, 3-chloro-4-(1-(3-cyanopyridin-2-yl)-5-(3,5-dimethylisoxazol-4-yl)-1H-pyrrolo[2,3-b]pyridin-3-yl)-5-(trifluoromethoxy)benzoic acid]",1 to 8
4,"Cc1noc(C)c1-c1cnc2c(c1)c(-c1c(Cl)cc(C(=O)O)cc1OC1CCC1)cn2-c1ncccc1C#N [P-0396, 3-chloro-4-(1-(3-cyanopyridin-2-yl)-5-(3,5-dimethylisoxazol-4-yl)-1H-pyrrolo[2,3-b]pyridin-3-yl)-5-cyclobutoxybenzoic acid]",1 to 8
5,"Cc1noc(C)c1-c1cnc2c(c1)c(-c1c(F)cc(C(=O)O)cc1OC1CC1)cn2C1CCOCC1 [P-0397, 3-cyclopropoxy-4-(5-(3,5-dimethylisoxazol-4-yl)-1-(tetrahydro-2H-pyran-4-yl)-1H-pyrrolo[2,3-b]pyridin-3-yl)-5-fluorobenzoic acid]",8 to 1000
6,"CCOc1nc(C(=O)O)c(Cl)cc1-c1cn(C2CCOCC2)c2ncc(-c3c(C)noc3C)cc12 [P-0398, 3-chloro-5-(5-(3,5-dimethylisoxazol-4-yl)-1-(tetrahydro-2H-pyran-4-yl)-1H-pyrrolo[2,3-b]pyridin-3-yl)-6-ethoxypicolinic acid]",8 to 1000
7,"Cc1noc(C)c1-c1cnc2c(c1)c(-c1ccc(C(=O)O)cc1OC(F)(F)F)cn2-c1ccc(=O)n(C)c1 [P-0399, 4-(5-(3,5-dimethylisoxazol-4-yl)-1-(1-methyl-6-oxo-1,6-dihydropyridin-3-yl)-1H-pyrrolo[2,3-b]pyridin-3-yl)-3-(trifluoromethoxy)benzoic acid]",1 to 8
8,"CCc1noc(C)c1-c1cnc2c(c1)c(-c1ccc(C(=O)O)cc1OC(F)(F)F)cn2C1CCOCC1 [P-0400, 4-(5-(3-ethyl-5-methylisoxazol-4-yl)-1-(tetrahydro-2H-pyran-4-yl)-1H-pyrrolo[2,3-b]pyridin-3-yl)-3-(trifluoromethoxy)benzoic acid]",1 to 8
9,"CCc1onc(C)c1-c1cnc2c(c1)c(-c1ccc(C(=O)O)cc1OC(F)(F)F)cn2C1CCOCC1 [P-0401, 4-(5-(5-ethyl-3-methylisoxazol-4-yl)-1-(tetrahydro-2H-pyran-4-yl)-1H-pyrrolo[2,3-b]pyridin-3-yl)-3-(trifluoromethoxy)benzoic acid]",1 to 8
10,"Cc1cc(C(=O)O)cc(OC(C)C)c1-c1cn(C2CCOCC2)c2ncc(-c3c(C)noc3C)cc12 [P-0402, 4-(5-(3,5-dimethylisoxazol-4-yl)-1-(tetrahydro-2H-pyran-4-yl)-1H-pyrrolo[2,3-b]pyridin-3-yl)-3-isopropoxy-5-methylbenzoic acid]",1 to 8
11,"Cc1noc(C)c1-c1cnc2c(c1)c(-c1ccc(C(=O)O)cc1OC(C)C)cn2C1(C)CCOCC1 [P-0403, 4-(5-(3,5-dimethylisoxazol-4-yl)-1-(4-methyltetrahydro-2H-pyran-4-yl)-1H-pyrrolo[2,3-b]pyridin-3-yl)-3-isopropoxybenzoic acid]",8 to 1000
12,"Cc1noc(C)c1-c1cnc2c(c1)c(-c1c(Cl)cc(C(=O)O)cc1OC(C)C)cn2C1(C)CCOCC1 [P-0404, 3-chloro-4-(5-(3,5-dimethylisoxazol-4-yl)-1-(4-methyltetrahydro-2H-pyran-4-yl)-1H-pyrrolo[2,3-b]pyridin-3-yl)-5-isopropoxybenzoic acid]",8 to 1000
13,"CCOc1nc(C(=O)O)ccc1-c1cn(C2(C)CCOCC2)c2ncc(-c3c(C)noc3C)cc12 [P-0405, 5-(5-(3,5-dimethylisoxazol-4-yl)-1-(4-methyltetrahydro-2H-pyran-4-yl)-1H-pyrrolo[2,3-b]pyridin-3-yl)-6-ethoxypicolinic acid]",1 to 8
14,"CCOc1nc(C(=O)O)c(Cl)cc1-c1cn([C@H]2CCOC2)c2ncc(-c3c(C)noc3C)cc12 [P-0406, (S)-3-chloro-5-(5-(3,5-dimethylisoxazol-4-yl)-1-(tetrahydrofuran-3-yl)-1H-pyrrolo[2,3-b]pyridin-3-yl)-6-ethoxypicolinic acid]",8 to 1000
15,"Cc1noc(C)c1-c1cnc2c(c1)c(-c1ccc(C(=O)O)cc1OC(C)C)cn2C1(C)CCOC1 (stereo not drawn) [P-0407, 4-(5-(3,5-dimethylisoxazol-4-yl)-1-(3-methyltetrahydrofuran-3-yl)-1H-pyrrolo[2,3-b]pyridin-3-yl)-3-isopropoxybenzoic acid]",8 to 1000
16,"Cc1noc(C)c1-c1cnc2c(c1)c(-c1c(Cl)cc(C(=O)O)cc1OC(C)C)cn2C1(C)CCOC1 (stereo not drawn) [P-0408, 3-chloro-4-(5-(3,5-dimethylisoxazol-4-yl)-1-(3-methyltetrahydrofuran-3-yl)-1H-pyrrolo[2,3-b]pyridin-3-yl)-5-isopropoxybenzoic acid]",8 to 1000
17,"Cc1noc(C)c1-c1cnc2c(c1)c(-c1c(Cl)cc(C(=O)O)cc1OC1CC1)cn2-c1ncccc1C#N [P-0409, 3-chloro-4-(1-(3-cyanopyridin-2-yl)-5-(3,5-dimethylisoxazol-4-yl)-1H-pyrrolo[2,3-b]pyridin-3-yl)-5-cyclopropoxybenzoic acid]",1 to 8
18,"Cc1noc(C)c1-c1cnc2c(c1)c(-c1c(F)cc(C(=O)O)cc1OC1CCC1)cn2C1CCOCC1 [P-0410, 3-cyclobutoxy-4-(5-(3,5-dimethylisoxazol-4-yl)-1-(tetrahydro-2H-pyran-4-yl)-1H-pyrrolo[2,3-b]pyridin-3-yl)-5-fluorobenzoic acid]",8 to 1000
19,"CCOc1nc(C(=O)O)cc(C)c1-c1cn(C2CCOCC2)c2ncc(-c3c(C)noc3C)cc12 [P-0411, 5-(5-(3,5-dimethylisoxazol-4-yl)-1-(tetrahydro-2H-pyran-4-yl)-1H-pyrrolo[2,3-b]pyridin-3-yl)-6-ethoxy-4-methylpicolinic acid]",8 to 1000
20,"CCOc1nc(C(=O)O)cc(C)c1-c1cn(-c2ccc(F)cc2F)c2ncc(-c3c(C)noc3C)cc12 [P-0412, 5-(1-(2,4-difluorophenyl)-5-(3,5-dimethylisoxazol-4-yl)-1H-pyrrolo[2,3-b]pyridin-3-yl)-6-ethoxy-4-methylpicolinic acid]",1 to 8
21,"Cc1nnn(C)c1-c1cnc2c(c1)c(-c1ccc(C(=O)O)cc1OC1CC1)cn2C1CCOCC1 [P-0413, 3-cyclopropoxy-4-(5-(1,4-dimethyl-1H-1,2,3-triazol-5-yl)-1-(tetrahydro-2H-pyran-4-yl)-1H-pyrrolo[2,3-b]pyridin-3-yl)benzoic acid]",1 to 8
22,"CCOc1cc(C(=O)O)nc(OCC)c1-c1cn(-c2ccccc2F)c2ncc(-c3c(C)noc3C)cc12 [P-0414, 5-(5-(3,5-dimethylisoxazol-4-yl)-1-(2-fluorophenyl)-1H-pyrrolo[2,3-b]pyridin-3-yl)-4,6-diethoxypicolinic acid]",1 to 8
23,"CCOc1cc(C(=O)O)nc(OCC)c1-c1cn([C@@H](C)c2ccccn2)c2ncc(-c3c(C)noc3C)cc12 [P-0415, (S)-5-(5-(3,5-dimethylisoxazol-4-yl)-1-(1-(pyridin-2-yl)ethyl)-1H-pyrrolo[2,3-b]pyridin-3-yl)-4,6-diethoxypicolinic acid]",8 to 1000
24,"CCOc1nc(C(=O)O)c(C)cc1-c1cn(C(C2CC2)C2CC2)c2ncc(-c3c(C)noc3C)cc12 [P-0416, 5-(1-(dicyclopropylmethyl)-5-(3,5-dimethylisoxazol-4-yl)-1H-pyrrolo[2,3-b]pyridin-3-yl)-6-ethoxy-3-methylpicolinic acid]",8 to 1000
25,"CCOc1nc(C(=O)O)cc(C)c1-c1cn(C(C2CC2)C2CC2)c2ncc(-c3c(C)noc3C)cc12 [P-0417, 5-(1-(dicyclopropylmethyl)-5-(3,5-dimethylisoxazol-4-yl)-1H-pyrrolo[2,3-b]pyridin-3-yl)-6-ethoxy-4-methylpicolinic acid]",8 to 1000
26,"Cc1noc(C)c1-c1cnc2c(c1)c(-c1ccnc(C(=O)O)c1C)cn2C(C1CC1)C1CC1 [P-0418, 4-(1-(dicyclopropylmethyl)-5-(3,5-dimethylisoxazol-4-yl)-1H-pyrrolo[2,3-b]pyridin-3-yl)-3-methylpicolinic acid]",0.0001 to 1
27,"Cc1noc(C)c1-c1cnc2c(c1)c(-c1ccnc(C(=O)O)c1C)cn2C1CCOCC1 [P-0419, 4-(5-(3,5-dimethylisoxazol-4-yl)-1-(tetrahydro-2H-pyran-4-yl)-1H-pyrrolo[2,3-b]pyridin-3-yl)-3-methylpicolinic acid]",0.0001 to 1
28,"CCOc1cc(C(=O)O)nc(OCC)c1-c1cn(C(C2CC2)C2CC2)c2ncc(-c3c(C)noc3C)cc12 [P-0420, 5-(1-(dicyclopropylmethyl)-5-(3,5-dimethylisoxazol-4-yl)-1H-pyrrolo[2,3-b]pyridin-3-yl)-4,6-diethoxypicolinic acid]",8 to 1000
29,"CCOc1cc(C(=O)O)nc(OCC)c1-c1cn(-c2ncccc2C#N)c2ncc(-c3c(C)noc3C)cc12 [P-0421, 5-(1-(3-cyanopyridin-2-yl)-5-(3,5-dimethylisoxazol-4-yl)-1H-pyrrolo[2,3-b]pyridin-3-yl)-4,6-diethoxypicolinic acid]",8 to 1000
30,"CCOc1cc(C(=O)O)nc(OCC)c1-c1cn(-c2ncccc2C(N)=O)c2ncc(-c3c(C)noc3C)cc12 [P-0422, 5-(1-(3-carbamoylpyridin-2-yl)-5-(3,5-dimethylisoxazol-4-yl)-1H-pyrrolo[2,3-b]pyridin-3-yl)-4,6-diethoxypicolinic acid]",8 to 1000
